In the supplement of paper PMC10307832:

Assays:
Experiment in all cases: relative viability (nuclei count vs DMSO), 5 days (fraction); higher = more cells survive
Trametinib + Luminespib = compound: CC(=O)Nc1cccc(-n2c(=O)n(C3CC3)c(=O)c3c(Nc4ccc(I)cc4F)n(C)c(=O)c(C)c32)c1 [Trametinib] + CCNC(=O)c1noc(-c2cc(C(C)C)c(O)cc2O)c1-c1ccc(CN2CCOCC2)cc1 [Luminespib] (partner 0.01 µM)
Outline: (§1)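 Each reported value is a median over duplicate plates. It expresses relative viability: treated-well nuclei count divided by vehicle-well nuclei count. Lung cancer cell lines in 1536-well plates were dosed by pin tool a day after seeding, alone with one drug or with a fixed anchor-drug dose plus five library-drug doses (not always all listed) in √10 steps, and nuclei were counted after 5 days.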

Trametinib + Vorinostat = compound: CC(=O)Nc1cccc(-n2c(=O)n(C3CC3)c(=O)c3c(Nc4ccc(I)cc4F)n(C)c(=O)c(C)c32)c1 [Trametinib] + O=C(CCCCCCC(=O)Nc1ccccc1)NO [Vorinostat] (partner 1 µM)
Outline: as §1

[1] = compound: CN1C=C(C2=CC=CC=C21)/C=C\3/C4=C(C=CC=N4)NC3=O + Nc1nc2[nH]cc(CCc3ccc(C(=O)N[C@@H](CCC(=O)O)C(=O)O)cc3)c2c(=O)[nH]1 [Pemetrexed] (partner 0.2 µM)
Outline: as §1

[2] = compound: CN1C=C(C2=CC=CC=C21)/C=C\3/C4=C(C=CC=N4)NC3=O
Outline: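 Viability was defined as treated-well nuclei divided by vehicle-well nuclei, with the median taken over replicate plates. Cells from lung cancer lines sat overnight at 37 °C in 1536-well plates, received five √10-spaced library-drug doses by pinning on vehicle-anchored plates, and grew 5 days without medium change before one-step fixation, permeabilisation and Hoechst staining, 4× imaging and MetaXpress nuclear counts. Only plates with control CV under 25% and at least one doubling were kept.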

Cell Line | relative viability (Trametinib + Luminespib; first compound 0.0025 µM) | relative viability (Trametinib + Luminespib; first compound 0.007906 µM) | relative viability (Trametinib + Luminespib; first compound 0.025 µM) | relative viability (Trametinib + Luminespib; first compound 0.07906 µM) | relative viability (Trametinib + Luminespib; first compound 0.25 µM) | relative viability (Trametinib + Vorinostat; first compound 0.0025 µM) | relative viability (Trametinib + Vorinostat; first compound 0.007906 µM) | relative viability (Trametinib + Vorinostat; first compound 0.025 µM) | relative viability (Trametinib + Vorinostat; first compound 0.07906 µM) | relative viability (Trametinib + Vorinostat; first compound 0.25 µM) | relative viability ([1]; first compound 0.02 µM) | relative viability ([1]; first compound 0.06325 µM) | relative viability ([1]; first compound 0.2 µM) | relative viability ([1]; first compound 0.6325 µM) | relative viability ([1]; first compound 2 µM) | relative viability ([2]; 0.02 µM) | relative viability ([2]; 0.06325 µM) | relative viability ([2]; 0.2 µM) | relative viability ([2]; 0.6325 µM) | relative viability ([2]; 2 µM)
NCI-H3122 | 0.103 | 0.0926 | 0.0926 | 0.0939 | 0.0775 | 0.978 | 0.678 | 0.204 | 0.361 | 0.518 | 0.185 | 0.196 | 0.203 | 0.194 | 0.267 | 0.878 | 0.938 | 0.897 | 1.05 | 0.994
NCI-H838 | 0.289 | 0.291 | 0.247 | 0.204 | 0.208 | 0.682 | 0.591 | 0.598 | 0.631 | 0.568 | 0.249 | 0.235 | 0.234 | 0.247 | 0.246 | 0.82 | 0.859 | 0.914 | 0.837 | 0.909
NCI-H1755 | 0.412 | 0.333 | 0.598 | 0.462 | 0.301 | 0.829 | 0.698 | 0.686 | 0.735 | 0.747 | 0.351 | 0.365 | 0.427 | 0.423 | 0.373 | 0.968 | 0.991 | 1.05 | 0.914 | 0.891
HCC-15 | 0.313 | 0.186 | 0.157 | 0.165 | 0.192 | 0.814 | 0.549 | 0.395 | 0.276 | 0.275 | 0.228 | 0.211 | 0.223 | 0.217 | 0.211 | 0.947 | 0.952 | 1.03 | 1.01 | 1.01
NCI-H2087 | 0.17 | 0.137 | 0.137 | 0.141 | 0.148 | 0.595 | 0.368 | 0.463 | 0.237 | 0.12 | 0.671 | 0.62 | 0.622 | 0.631 | 0.656 | 1 | 0.87 | 1.05 | 0.986 | 1.06
LCLC-103H | 0.769 | 0.761 | 0.735 | 0.767 | 0.668 | 0.808 | 0.636 | 0.699 | 0.631 | 0.588 | 0.455 | 0.455 | 0.483 | 0.482 | 0.462 | 0.963 | 0.933 | 0.976 | 0.98 | 0.959
NCI-H1650 | 0.209 | 0.2 | 0.176 | 0.174 | 0.211 | 0.502 | 0.625 | 0.572 | 0.45 | 0.288 | 0.39 | 0.352 | 0.371 | 0.384 | 0.328 | 1.03 | 0.923 | 0.685 | 0.794 | 0.914
LK-2 | 0.159 | 0.183 | 0.223 | 0.161 | 0.191 | 0.346 | 0.288 | 0.164 | 0.344 | 0.326 | 0.192 | 0.241 | 0.199 | 0.309 | 0.297 |  | 0.697 | 0.652 | 0.776 | 0.975
NCI-H2342 | 0.728 | 0.582 |  | 0.587 | 0.604 | 0.727 | 0.793 | 0.488 | 0.685 | 0.68 | 0.704 | 0.747 | 0.736 | 0.756 | 0.767 | 0.938 | 0.963 | 0.955 | 0.878 | 0.906
NCI-H522 | 1.04 | 0.917 | 1 | 0.844 | 0.574 | 0.823 | 0.798 | 0.836 | 0.763 | 0.671 | 0.743 | 0.775 | 0.878 | 1.1 | 0.998 | 0.89 | 1.13 | 0.869 | 0.944 | 0.883
ChaGo-K-1 | 0.729 | 0.515 | 0.511 | 0.646 | 0.464 | 0.659 | 0.623 | 0.685 | 0.731 | 0.418 | 0.252 | 0.255 | 0.241 | 0.269 | 0.245 | 0.991 | 1 | 0.784 | 1.02 | 0.996
NCI-H1666 | 0.95 | 0.912 | 0.717 | 0.72 | 0.573 | 0.989 | 0.946 | 0.871 | 0.861 | 0.713 | 0.896 | 0.861 | 0.847 | 0.765 | 0.737 | 1.09 | 0.938 | 0.99 | 0.924 | 0.967
EKVX | 0.864 | 0.767 | 0.331 | 0.446 | 0.351 | 0.63 | 0.442 | 0.365 | 0.405 | 0.321 | 0.371 |  |  | 0.354 | 0.352 | 0.952 | 0.812 | 0.801 | 0.885 | 0.983
COR-L 105 | 0.685 | 0.587 | 0.415 | 0.271 | 0.344 | 0.715 | 0.747 | 0.52 | 0.484 | 0.379 | 1.07 | 0.969 | 1.12 | 1.28 | 1.3 | 0.803 | 0.838 | 0.837 | 1.05 | 1.02
NCI-H322M | 0.749 | 0.634 | 0.471 | 0.473 | 0.404 | 0.797 | 0.691 | 0.62 | 0.557 | 0.555 | 0.606 | 0.575 | 0.598 | 0.673 | 0.641 | 0.854 | 0.93 | 0.787 | 0.973 | 0.956
HARA | 0.75 | 0.534 | 0.694 | 0.234 | 0.13 | 0.387 | 0.403 | 0.298 | 0.251 | 0.154 | 0.24 | 0.24 |  | 0.263 | 0.216 | 0.935 | 0.972 | 0.657 | 0.96 | 0.928
